pIC50: −log10 of the molar value. Values joined by “and” are separate entries in the source; they are usually repeats but may differ in a detail not shown here. Equal values may be shown once.
Each molecule was assayed against T1, Histidine--tRNA ligase (Leishmania infantum, UniProt A4I591) (assay: Leishmania infantum Histidine tRNA synthetase (LdHisRS)).
T1 sequence (A4I591 whole entry): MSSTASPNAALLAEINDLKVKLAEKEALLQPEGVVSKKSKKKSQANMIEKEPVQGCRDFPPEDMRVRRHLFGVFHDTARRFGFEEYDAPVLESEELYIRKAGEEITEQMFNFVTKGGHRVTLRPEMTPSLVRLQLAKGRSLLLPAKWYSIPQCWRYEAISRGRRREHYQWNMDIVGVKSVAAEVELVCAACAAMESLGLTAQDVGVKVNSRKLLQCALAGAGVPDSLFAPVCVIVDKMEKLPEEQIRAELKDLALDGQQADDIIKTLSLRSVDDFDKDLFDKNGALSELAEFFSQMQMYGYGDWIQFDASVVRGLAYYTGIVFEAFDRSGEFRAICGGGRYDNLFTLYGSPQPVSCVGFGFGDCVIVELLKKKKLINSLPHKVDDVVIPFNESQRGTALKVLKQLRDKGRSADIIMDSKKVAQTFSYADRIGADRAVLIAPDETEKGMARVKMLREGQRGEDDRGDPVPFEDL
Format: functional

SMILES | pIC50
O=c1c2ccccc2nc2n1C(CSc1ccc(Br)cc1)CN2 (configuration not stated) | < 4.00
CCC1CCc2c(c3ccccc3[nH]c2=O)O1 (configuration not stated) | < 4.00
Cc1c(CN2CCCCC2)c(O)n(CCO)c(=O)c1C#N | 4.46 and 4.44
Cc1nn(-c2ccccn2)c(C)c1[C@@H]1C=C[C@@H](NC(=O)NC(C)C)C1 | < 4.00 and 4.06
Cc1nn(CCC#N)c(C)c1[C@@H]1C=C[C@@H](NCc2cccc(Cl)c2)C1 | < 4.00
O=C(NC[C@H]1CCCC[C@H]1O)c1ccc2nc(-c3ccco3)[nH]c2c1 | 4.68 and 4.59
CCN1C(=O)C(C#N)=C(C)/C(=C/C2=Cc3ccccc3OC2)C1=O | 5.78 and 5.75 and 5.87
O=C(Cc1cnc(-c2c(Cl)cccc2Cl)s1)N1CCOCC1 | < 4.00
Cc1nnc(SCC(=O)c2cc3c(cc2Cl)NC(=O)C3)o1 | 4.37 and 4.28
Nc1nnc(SCC(=O)c2cc3c(cc2Cl)NC(=O)C3)s1 | < 4.00 and 4.11
CC1=Nc2c(c(=O)[nH]n2C(C)C)C(c2ccc3c(c2)OCCO3)S1 (configuration not stated) | < 4.00
CC1=Nc2c(c(=O)[nH]n2C(C)C)C(c2ccc3c(c2)n(C)c(=O)n3C)S1 (configuration not stated) | < 4.00
COc1ccc(C2SC(C)=Nc3c2c(=O)[nH]n3C2CCCC2)cc1O (configuration not stated) | < 4.00
COc1ccc2c(c1)c(C(=O)Nc1nnn[nH]1)cn2C(C)C | < 4.00
O=C(C1=NN(Cc2ccccc2)c2ccccc2S1(=O)=O)N1CCCC1 | 4.39 and 4.40
CCN(C(=O)c1nc2c(s1)CCCN2Cc1ccccc1)C(C)C | 4.65 and 4.76
O=C(c1nc2c(s1)CCCN2CC1CC1)N1CCOCC1 | 4.72 and 4.88
COCCn1cc(-c2cc(C(=O)N3CCCC3)c3ccccn23)nc1C | < 4.00
CN1CCCN(C(=O)c2nc3c(s2)CCCN3CC2CC2)CC1 | 4.11 and 4.26

SMILES | pIC50
Cc1ccc(N2CCc3sc(C(=O)N4CCOCC4)cc32)nn1 | < 4.00
CC(C)NC(=O)C1Cc2nc(-c3ccsc3)sc2N1CC1CC1 (configuration not stated) | 4.47 and 4.43
COCCN1CCCc2sc(C(=O)NCC3CCCO3)nc21 (configuration not stated) | 4.65 and 4.62
O=C(c1cnccn1)N1C[C@@H]2[C@@H](C1)OCC(=O)N2CC1CCCC1 | < 4.00
c1cc(-c2ccc3c(c2)CCC32CCN(c3nncs3)CC2)co1 | 4.90 and 4.99
c1cc(-c2ccc3c(c2)C2(CC3)CCN(c3nncs3)CC2)ccn1 | 4.53 and 4.57
Cc1nc(N2CCCC2)nc2c1CCN(C(=O)C1CCC1)CC2 | < 4.00
c1cc(-c2nnc3sc(CCN4CCCC4)nn23)ccn1 | < 4.00
Cc1c(Cl)cccc1NC(=O)Cn1cc(C(=O)O)ccc1=O | < 4.00
O=c1c2cnc(N3CCOCC3)nc2ccn1-c1ccccc1 | < 4.00
COc1cc(CCO)c(OC)c2c1OCO2 | < 4.00
O=C1CC(c2ccc(C(=O)O)cc2)c2ncn(-c3ccc(Cl)cc3)c2N1 (configuration not stated) | 4.80 and 4.91
O=C1CC(c2ccc(C(=O)O)cc2)c2ncn(-c3ccccc3F)c2N1 (configuration not stated) | 4.72 and 4.60
O=C1CC(c2ccc(C(=O)O)cc2)c2ncn(-c3ccc(F)cc3)c2N1 (configuration not stated) | 4.83 and 4.66
O=C1CC(c2ccc(C(=O)O)cc2)c2ncn(-c3cccc(Cl)c3)c2N1 (configuration not stated) | 4.68 and 4.58
Cc1cs/c(=N/C(=O)c2csc(NCC(C)C)n2)[nH]1 | 4.54 and 4.33
O=C1CC(c2ccc(C(=O)O)cc2)c2ncn(-c3ccccc3)c2N1 (configuration not stated) | 4.76 and 4.70
Cc1cc2nc(SCC(=O)N3CCCC3)n(-c3ccccc3)c(=O)c2[nH]1 | 4.09 and < 4.00
O=C(CCn1ccc2cc(Br)ccc21)NCc1ccc(C(=O)O)cc1 | < 4.00 and 4.17

SMILES | pIC50
O=C(c1ccc2[nH]ccc2c1)N1CCn2cnc(COCC3CC3)c2C1 | 4.42 and 4.59
Cc1c(CN2CCOCC2)c(O)n(CCc2ccccc2)c(=O)c1C#N | 4.63 and 4.70
CNc1[nH]nc(N)c1NC(=O)c1ccccc1 | 4.90 and 4.84
Cc1ccc(CN2C(=O)CCC2C(=O)Nc2cnn(C)c2)o1 (configuration not stated) | < 4.00 and 4.05
COCCN1CCCC(C)(c2cc(O)[nH]n2)C1 (configuration not stated) | < 4.00
COCCN1CCC(C)(c2cc(O)[nH]n2)CC1 | 4.15 and 4.18
CS(=O)(=O)N1CCCC(Cc2ccnc3ccncc23)CC1 (configuration not stated) | 4.67 and 4.64
CN(C)C(=O)CN1CCCC1c1cccc(Cc2ccccc2F)n1 (configuration not stated) | 4.21 and 4.29
Cc1nccn1-c1cccc(C2CCCN(C3CCCC3)C2)n1 (configuration not stated) | 4.49 and 4.44
c1cc2nccc(CC3CCCN(Cc4ncc[nH]4)CC3)c2cn1 (configuration not stated) | < 4.00
Cc1cc(C(=O)NCC(F)(F)F)c2c(C3CCCN3)noc2n1 (configuration not stated) | 4.42 and 4.15
CCOc1ccc(N(CCC#N)C(=O)c2ccnc(SC)c2)cc1 | < 4.00
COc1cc(CC(=O)Nc2cccc(C(=O)N(C)C)n2)ccc1C | 4.61 and 4.43
O=C(Nc1c(N2CCCC2)cccc1N1CCCC1)c1ccccn1 | 4.49 and 4.57
COc1ccc2c(c1)CC(NCc1cccc(OCC(N)=O)c1)CC2 (configuration not stated) | 4.77 and 4.63
Cc1nnc2n1CCN(C(=O)c1ccc(Cn3cccc3)cc1)C2 | 4.29 and 4.36
CCCn1nc2c(cc1=O)CN(CC1CCCCO1)CC2 (configuration not stated) | 4.47 and 4.37
CC(=O)N1CCN(c2ccccc2CNc2ccc3[nH]ncc3c2)CC1 | < 4.00 and 4.12
CC(C)C(C)NC(=O)Nc1cccn(C)c1=O (configuration not stated) | 4.18 and 4.27
